Here are results for 9 compounds from US7307098B2, “Indole derivatives and drugs containing the same” (Meiji Dairies Corporation, priority 2002, dated 2007).

In this test the test system is neurospheres which are clusters of neural stem cells. The test is described as follows: Test Example 1: differentiation of neurospheres into neurons (immunofluorescence, confocal microscope). To be noted: Mus musculus, Neural stem cell; test compound 10^−6M, cultivation typically 24 hours, Anti-MAP2 labeling of neurons, control = 100; read-out: Percentage of neuron in relation to control. The test is classed as cell-based. As to the method:
Neural stem cell was produced from […] in accordance with the method of Weiss and Reynolds (1996). More specifically, striate body was extirpated from mouse embryo, and the cells were dispersed in a culture medium containing EGF (20 ng/mL). The cells were cultured under the conditions of 5% CO2 and 37° C. for 5 days. The culture was then centrifuged at 400 rpm in Dissociation Medium (manufactured by Sigma) for 5 minutes, and neurospheres which are cluster of the neural stem cells were obtained. The neurospheres were dispersed in the culture medium, and cultivation was conducted under the same conditions to produce secondary neurospheres.
A sterilized cover glass was placed in the well of 24 well plate, treated overnight with polyornithine solution (30 μg/mL), and washed three times with phosphate buffered saline. Neurospheres were inoculated on the cover glass at 20 to 50 cells/cover glass. The test compound that has been adjusted to the concentration of 10^−6M with ethanol was applied to the cover glass, and the cultivation was continued for a period sufficient for differentiation of the neurospheres (typically 24 hours). The indole derivatives obtained in the Examples were used for the test compounds, and the control cells were cultivated without using such test compound.
Sufficiently differentiated neurospheres were fixed with 4% p-formaldehyde, washed with phosphate buffered saline, and after adding Triton-X100, washed again with phosphate buffered saline. Anti-MAP2 (2a+2b) (Sigma) which is a mouse monoclonal antibody used for labeling neurons and Anti-O4 (Boeringher) which is a mouse monoclonal antibody used for labeling oligodendrocytes, and Anti-GFAP (DAKO) which is a rabbit monoclonal antibody used for labeling astrocytes were added, and the cultivation was continued at room temperature for 1 hour or overnight at 4° C. Anti-mouse IgM antibody and fluorescence indicator were added, and cultivation was continued at room temperature for 1 hour. After washing with phosphate buffered saline, the cover glass was placed on a confocal microscope to observe the differentiation of the neurospheres.

As for `COc1ccc2[nH]cc(CCCCCCCCCCCCCCCCO)c2c1` [1-1a, n=16, 16-(5-methoxy-1H-indole-3-yl)-hexadecane-1-ol], the activity at 1 µM came out at 168%.
`COc1ccc2[nH]cc(CCCCCCCCCCCCCCO)c2c1` [1-1a, n=14, 14-(5-methoxy-1H-indole-3-yl)-tetradecane-1-ol]: the activity at 1 µM was determined as 143%.
For `COc1cccc2cc(CCCCCCCCCCCCCCCCO)[nH]c12` [1-2c, n=16, 16-(7-methoxy-1H-indole-2-yl)-hexadecane-1-ol], the activity at 1 µM was found to be 128%.
As for `COc1ccc2[nH]cc(CCCCCCCCCCCCCCCCCCO)c2c1` [1-1a, n=18, 18-(5-methoxy-1H-indole-3-yl)-octadecane-1-ol], the activity at 1 µM was determined as 169%.
The figure for `COc1cccc2[nH]c(CCCCCCCCCCCCCCO)cc12` [1-2b, n=14, 14-(4-methoxy-1H-indole-2-yl)-tetradecane-1-ol] is 147%.
The value for `COc1cccc2[nH]cc(CCCCCCCCCCCCCCCCO)c12` [1-1b, n=16, 16-(4-methoxy-1H-indole-3-yl)-hexadecane-1-ol] was 133%.
In the case of `COc1cccc2[nH]c(CCCCCCCCCCCCCCCCO)cc12` [1-2b, n=16, 16-(4-methoxy-1H-indole-2-yl)-hexadecane-1-ol], the activity at 1 µM worked out at 184%.
For the compound `COc1ccc2c(CCCCCCCCCCCCCCCCO)c[nH]c2c1` [1-1c, n=16, 16-(6-methoxy-1H-indole-3-yl)-hexadecane-1-ol], the activity at 1 µM came out at 135%.
The value for `COc1ccc2[nH]c(CCCCCCCCCCCCCCCCO)cc2c1` [1-2a, n=16, 16-(5-methoxy-1H-indole-2-yl)-hexadecane-1-ol] was 135%.
